Experimental data taken from US20260042847A1, “CYSTEINE ENGINEERED ANTIBODY CONSTRUCTS, CONJUGATES AND METHODS OF USE” (ZYMEWORKS INC., priority 2021, published 2026).
Square brackets hold non-standard residues; d marks the D form. Peptide text beside a SMILES is read from it. * marks the point of attachment. Dolaproine = CO[C@@H]([C@@H]1CCCN1)[C@@H](C)C(=O)O; Dil = CC[C@H](C)[C@H](NC)[C@@H](CC(=O)O)OC; X1 = C[C@@H](N*)[C@@H](O)c1ccccc1; NMeV = CN[C@H](C(=O)O)C(C)C

Assays:
Type in all cases: cell-based
[1] = system: H292 cell line (mid c-Met expressing); assay: In vitro cytotoxicity (CellTiter-Glo), H292; conditions: 4 nights incubation; n = 2; IC = cytotoxicity shown but curve not optimal for accurate EC50
Procedure: (§1) Cytotoxicity of the ADCs from Example 3 comprising either MCvcPABC-MMAE or MTvcCompound 1 was tested in vitro against a variety of tumor cell lines expressing the target surface antigen (c-Met) as described below. The following cell lines were used (Table 9.1).
(§2) Each of the cell lines shown in Table 9.1 was grown in the respective complete growth medium until assay day. After removal from the culture vessels using Trypsin-EDTA, cells were counted using a Scepter™ Cell Counter (Sigma-Aldrich Canada, Oakville, ON). Cells were diluted in complete growth medium to 20,000 cells/mL, such that 50 μL/well in 384-well plates equaled 1,000 cells/well, unless otherwise specified. All ADCs were diluted to 15 nM starting concentration in complete growth medium (RPMI 1640) followed by a 1:3 dilution in sterile 96-well dilution plates (final volume 200 μL/well). Samples (20 μL/well) were transferred into a 384-well plate in duplicate. Plates were then seeded with 20,000 cell/mL suspension of test cell line (50 μL/well), unless otherwise specified. […] After incubation, cell viability was quantified by adding 1×CellTiter-Glo® reagent (Promega Corporation, Madison, WI) at 10 μL/well. After incubating for 30 min in the dark, luminescence was measured using a Synergy™ H1 Hybrid Multi-Mode Reader (BioTek Instruments Inc., Winooski, VT). Data was analyzed with Prism 7 software (GraphPad Prism Software).

[2] = system: EBC-1 cell line (high c-Met-expressing); assay: In vitro cytotoxicity (CellTiter-Glo), EBC-1; conditions: 4 nights incubation; n = 2
Procedure: as §1, §2

[3] = system: HCC827 cell line (mid c-Met expressing); assay: In vitro cytotoxicity (CellTiter-Glo), HCC827; conditions: 4 nights incubation; n = 2
Procedure: as §1, §2

[4] = system: BT-20 cell line (low c-Met expressing); assay: In vitro cytotoxicity (CellTiter-Glo), BT-20; conditions: 4 nights incubation; n = 2; IC = cytotoxicity shown but curve not optimal for accurate EC50
Procedure: as §1, §2

Work on CC[C@H](C)[C@@H]([C@@H](CC(=O)N1CCC[C@H]1[C@H](OC)[C@@H](C)C(=O)N[C@H](C)[C@@H](O)c1ccccc1)OC)N(C)C(=O)[C@@H](NC(=O)[C@@H](NC)C(C)C)C(C)C [MMAE] (H-[NMeV]V[Dil][Dolaproine]-X1) yielded an EC50 [1] of 0.11 nM, an EC50 [2] of 0.16 nM and an EC50 [3] of 0.36 nM. For the same compound, the EC50 [4] was 0.13 nM.
